Test results reported in article PMC3417242 (Journal of medicinal chemistry, 2012).
Read-outs that look alike come from different tables or passages of the source.

Key:
Bcl-xL [1] = target: T1, Bcl-xL (Homo sapiens, UniProt Q07817); assay: Fluorescence polarization-based; assay type: binding
[2] = tested on: H146 xenograft tumor tissues; assay: In vivo pharmacodynamic; parameters: species or system SCID mice; details: at its maximum tolerated dose (data not shown)
Bcl-xL [3] = target: T1, Bcl-xL; details: read-out: Ki, binding to Bcl-xL; previously reported; cited from earlier work
[4] = tested on: H146 small-cell lung cancer cell line; assay: Cell growth inhibition, H146; assay type: cell-based, Human
[5] = tested on: H1417 small-cell lung cancer cell line; assay: Cell growth inhibition, H1417; assay type: cell-based, Human
H146 cell line [6] = assay: Western blotting of caspase-3 and PARP cleavage in cells; assay type: cell-based, Human; details: 24 h
H146 cell line [7] = assay: Cell death induction by trypan blue assay; assay type: cell-based, Human; details: 24 h
[8] = tested on: H146, H1417 and H1963 cancer cell lines; assay type: cell-based, Human
SCID mice = assay: Toxicity in SCID mice; assay type: in vivo; details: 25 mg/kg, daily intravenous dosing, five days a week for 2 weeks
H146 cancer cells = assay: Release of cytochrome C from mitochondria in cells; assay type: cell-based, Human; details: for Release of cytochrome C and cleavage of PARP at 30 nM: 2 h, H146 cells; for Release of cytochrome C from mitochondria in H146 cells: treatment as short as 2 h
Bcl-2 [9] = target: T2, Bcl-2 (Homo sapiens, UniProt P10415); assay: Fluorescence polarization-based; assay type: binding; details: for times less potent than 12 in binding to Bcl-2: compared with compound 12
T2 sequence (P10415 whole entry): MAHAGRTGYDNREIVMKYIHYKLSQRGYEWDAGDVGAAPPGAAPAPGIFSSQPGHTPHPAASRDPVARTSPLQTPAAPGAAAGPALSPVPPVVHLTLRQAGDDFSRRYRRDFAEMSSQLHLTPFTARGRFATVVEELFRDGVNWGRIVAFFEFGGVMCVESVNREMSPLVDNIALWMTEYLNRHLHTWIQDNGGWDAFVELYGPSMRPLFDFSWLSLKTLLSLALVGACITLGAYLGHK

Bcl-2 [10] = target: T2, Bcl-2; assay: Cell-free mitochondrial functional assay, Bcl-2; details: compared with compound 1
H146 xenograft model = assay: In vivo efficacy study, H146 xenograft model; details: 25 mg/kg daily i.v. 5 days a week for 2 weeks
[11] = tested on: H1963 small-cell lung cancer cell line; assay: Cell growth inhibition, H1963; assay type: cell-based; details: read-out: Cell Growth Inhibition (IC50 ± SD) H1963

T1 sequence (Q07817 whole entry): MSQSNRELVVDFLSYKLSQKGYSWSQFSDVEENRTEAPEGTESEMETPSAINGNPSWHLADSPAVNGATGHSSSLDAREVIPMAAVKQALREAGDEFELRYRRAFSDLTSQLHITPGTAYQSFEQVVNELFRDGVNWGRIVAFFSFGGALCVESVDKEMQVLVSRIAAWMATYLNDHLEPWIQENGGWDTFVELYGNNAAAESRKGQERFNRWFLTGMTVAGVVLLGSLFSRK

CCc1c(-c2ccc(Cl)cc2)c(-c2cccc(N3CCN(c4ccc(NS(=O)(=O)c5ccc(N[C@H](CCN(C)C)CSc6ccccc6)c([N+](=O)[O-])c5)cc4)CC3)c2)c(C(=O)O)n1C [Compound 6]
Ki (Bcl-xL [1]; read-out: Binding Affinities Bcl-xL Ki ± SD, FP competitive binding): < 0.001 µM | Apoptosis induction in H146 xenograft tumor tissues [2]: fails to induce robust apoptosis | Ki (Bcl-xL [3]): < 0.001 µM

CN1CCN(CCCNC(=O)c2c(-c3ccccc3)c(-c3ccc(Cl)cc3)cn2CC[C@H](O)CO)CC1 [Compound 7, reference compound]
IC50 ([4]; Homo sapiens, NCI-H146, read-out: Cell Growth Inhibition (IC50 ± SD) H146): > 10 µM | IC50 ([5]; Homo sapiens, NCI-H1417, read-out: Cell Growth Inhibition (IC50 ± SD) H1417): > 10 µM

Cc1c(C(=O)O)c(-c2cccc(N3CCN(c4ccc(NS(=O)(=O)c5ccc(N[C@H](CCN(C)C)CSc6ccccc6)c([N+](=O)[O-])c5)cc4)CC3)c2)c(-c2ccc(Cl)cc2)n1C(C)C [Compound 15, (R)-5-(4-Chlorophenyl)-4-(3-(4-(4-(4-((4-(dimethylamino)-1-(phenylthio)butan-2-yl)amino)-3-nitrophenylsulfonamido)phenyl)piperazin-1-yl)phenyl)-1-isopropyl-2-methyl-1H-pyrrole-3-carboxylic acid]
Cleavage of caspase-3 and PARP in H146 (H146 cell line [6]): induce cleavage of caspase-3 and poly (ADP- ribose) polymerase (PARP) in a dose-dependent manner | Cell death induction in H146 at 10 nM (H146 cell line [7]): induce robust cell death | Cell death induction in H146 (H146 cell line [7]): effectively induce cell death in H146 in a dose-dependent manner | times more potent than compound 1 in cell growth inhibition ([8]; direct comparison): 10–100 times | Tolerability in SCID mice (SCID mice): toxic to the animals which had severe weight loss | Release of cytochrome C and cleavage of PARP at 30 nM (H146 cancer cells): robust | Release of cytochrome C from mitochondria in H146 cells (H146 cancer cells): induces a release of cytochrome C in a dose-dependent manner

Cc1c(C(=O)O)c(-c2cccc(N3CCN(c4ccc(NS(=O)(=O)c5ccc(N[C@H](CCN(C)C)CSc6ccccc6)c([N+](=O)[O-])c5)cc4)CC3)c2)c(-c2ccc(Cl)cc2)n1C [Compound 12, (R)-5-(4-Chlorophenyl)-4-(3-(4-(4-(4-((4-(dimethylamino)-1-(phenylthio)butan-2-yl)amino)-3-nitrophenylsulfonamido)phenyl)piperazin-1-yl)phenyl)-1,2-dimethyl-1H-pyrrole-3-carboxylic acid]
Cleavage of caspase-3 and PARP in H146 (H146 cell line [6]): induce cleavage of caspase-3 and poly (ADP- ribose) polymerase (PARP) in a dose-dependent manner | Cell death induction in H146 (H146 cell line [7]): effectively induce cell death in H146 in a dose-dependent manner | times more potent than compound 10 in cell growth inhibition [8]: 2–4 times

Cc1cc(-c2cccc(N3CCN(c4ccc(NS(=O)(=O)c5ccc(N[C@H](CCN(C)C)CSc6ccccc6)c([N+](=O)[O-])c5)cc4)CC3)c2)c(-c2ccc(Cl)cc2)n1C [Compound 13, (R)-N-(4-(4-(3-(2-(4-Chlorophenyl)-1,5-dimethyl-1H-pyrrol-3-yl)phenyl)piperazin-1-yl)phenyl)-4-((4-(dimethylamino)-1-(phenylthio)butan-2-yl)amino)-3-nitrobenzenesulfonamide]
times less potent than 12 in binding to Bcl-2 (Bcl-2 [9]): 100 times

Cc1c(C(=O)NCCCN2CCN(C)CC2)c(-c2cccc(N3CCN(c4ccc(NS(=O)(=O)c5ccc(N[C@H](CCN(C)C)CSc6ccccc6)c([N+](=O)[O-])c5)cc4)CC3)c2)c(-c2ccc(Cl)cc2)n1C [Compound 10, (R)-5-(4-Chlorophenyl)-4-(3-(4-(4-(4-((4-(dimethylamino)-1-(phenylthio)butan-2-yl)amino)-3-nitrophenylsulfonamido)phenyl)piperazin-1-yl)phenyl)-1,2-dimethyl-N-(3-(4-methylpiperazin-1-yl)propyl)-1H-pyrrole-3-carboxamide]
times less potent than 1 in the Bcl-2 functional assay (Bcl-2 [10]): 3 times

CNC(=O)c1c(-c2cccc(N3CCN(c4ccc(NS(=O)(=O)c5ccc(N[C@H](CCN(C)C)CSc6ccccc6)c([N+](=O)[O-])c5)cc4)CC3)c2)c(-c2ccc(Cl)cc2)n(C)c1C [Compound 11, (R)-5-(4-Chlorophenyl)-4-(3-(4-(4-(4-((4-(dimethylamino)-1-(phenylthio)butan-2-yl)amino)-3-nitrophenylsulfonamido)phenyl)piperazin-1-yl)phenyl)-N,1,2-trimethyl-1H-pyrrole-3-carboxamide]
times more potent than compound 10 in cell growth inhibition [8]: 2–4 times

Cc1c(C(=O)O)c(-c2cccc(N3CCN(c4ccc(NS(=O)(=O)c5ccc(N[C@H](CCN(C)C)CSc6ccccc6)c([N+](=O)[O-])c5)cc4)CC3)c2)c(-c2ccc(Cl)cc2)n1C1CC1 [Compound 16, (R)-5-(4-Chlorophenyl)-1-cyclopropyl-4-(3-(4-(4-(4-((4-(dimethylamino)-1-(phenylthio)-butan-2-yl)amino)-3-nitrophenylsulfonamido)phenyl)piperazin-1-yl)phenyl)-2-methyl-1H-pyrrole-3-carboxylic acid]
times less potent than 12 in binding to Bcl-2 (Bcl-2 [9]): 10 times

Cc1c(C(=O)NCCCN2CCN(C)CC2)c(-c2ccccc2)c(-c2ccc(Cl)cc2)n1C [Compound 8, 5-(4-Chlorophenyl)-1,2-dimethyl-N-(3-(4-methylpiperazin-1-yl)propyl)-4-phenyl-1H-pyrrole-3-carboxamide]
times more potent than 7 in binding to Bcl-2 (Bcl-2 [9]; Ki compared with compound 7): 2 times | times more potent than 7 in binding to Bcl-xL (Bcl-xL [1]; Ki compared with compound 7): 2 times | Cellular activity (cell growth inhibition) [8]: minimal cellular activity

CN(C)CC[C@H](CSc1ccccc1)Nc1ccc(S(=O)(=O)NC(=O)c2ccc(N3CCN(Cc4ccccc4-c4ccc(Cl)cc4)CC3)cc2)cc1[N+](=O)[O-] [Compound 1, reference compound]
Cleavage of caspase-3 and PARP in H146 (H146 cell line [6]): induce cleavage of caspase-3 and poly (ADP- ribose) polymerase (PARP) in a dose-dependent manner | Cell death induction in H146 (H146 cell line [7]): effectively induce cell death in H146 in a dose-dependent manner

CCn1c(C)c(C(=O)O)c(-c2cccc(N3CCN(c4ccc(NS(=O)(=O)c5ccc(N[C@H](CCN(C)C)CSc6ccccc6)c([N+](=O)[O-])c5)cc4)CC3)c2)c1-c1ccc(Cl)cc1 [Compound 14, (R)-5-(4-Chlorophenyl)-4-(3-(4-(4-(4-((4-(dimethylamino)-1-(phenylthio)butan-2-yl)amino)-3-nitrophenylsulfonamido)phenyl)piperazin-1-yl)phenyl)-1-ethyl-2-methyl-1H-pyrrole-3-carboxylic acid]
Cleavage of caspase-3 and PARP in H146 (H146 cell line [6]): induce cleavage of caspase-3 and poly (ADP- ribose) polymerase (PARP) in a dose-dependent manner | Inhibition of tumor growth (H146 xenograft model): very effective in inhibition of tumor growth | Maximum weight loss during the treatment (H146 xenograft model): < 10% | Other signs of toxicity (H146 xenograft model): no other signs of toxicity observed | Tumor regression during the treatment phase (H146 xenograft model): capable of achieving tumor regression | Cell death induction in H146 at 10 nM (H146 cell line [7]): induce robust cell death | Cell death induction in H146 (H146 cell line [7]): effectively induce cell death in H146 in a dose-dependent manner | Tolerability in SCID mice (SCID mice): well tolerated | Release of cytochrome C and cleavage of PARP at 30 nM (H146 cancer cells): robust | Release of cytochrome C from mitochondria in H146 cells (H146 cancer cells): induces a release of cytochrome C in a dose-dependent manner

(R)-5-(4-Chlorophenyl)-4-(3-(4-(4-(((4-((4-(dimethylamino)-1-(phenylthio)butan-2-yl)amino)phenyl)sulfonyl)carbamoyl)phenyl)piperazin-1-yl)phenyl)-1,2-dimethyl-N-(3-(4-methylpiperazin-1-yl)propyl)-1H-pyrrole-3-carboxamide [Compound 9]
IC50 ([4]; read-out: Cell Growth Inhibition (IC50 ± SD) H146, H146): > 10 µM | IC50 [11]: > 10 µM | IC50 ([5]; read-out: Cell Growth Inhibition (IC50 ± SD) H1417, H1417): > 10 µM
